Results: PubChem BioAssay AID608 (Sanford-Burnham Center for Chemical Genomics, 2007)
Active and inactive are the calls of the source. The rule behind the calls is not given here.

The compounds below were run against Peptidyl-prolyl cis-trans isomerase FKBP1A (Homo sapiens) (UniProt P62942) (assay: FKBP12 binders, biophysical, NMR detection (AID 608)). Conditions: NMR binding, purified FKBP12.
Chain of Peptidyl-prolyl cis-trans isomerase FKBP1A (Homo sapiens) (P62942 whole entry, looked up): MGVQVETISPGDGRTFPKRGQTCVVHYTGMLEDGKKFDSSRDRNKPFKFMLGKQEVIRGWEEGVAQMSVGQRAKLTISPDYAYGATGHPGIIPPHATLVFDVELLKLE
With `O=C(c1nc2ncccn2n1)N1CCc2ccccc2C1` the Kd was > 4 mM (inactive). `CSc1nnc2[nH]c(=O)cc(N)n12` was tested, and the Kd was > 4 mM (inactive). For `O=S(=O)(Nc1cccc2cn[nH]c12)c1ccc(F)cc1`, the Kd was > 4 mM (inactive). With `Cn1ncc(N2CCOCC2)c(Cl)c1=O` the Kd was > 4 mM (inactive). In the case of `CCOc1ccc2ccccc2c1C(=O)N1CCOCC1`, the Kd is reported as > 4 mM (inactive). In the case of `CCCS(=O)(=O)N1CCN(c2ccccc2F)CC1`, the Kd is reported as > 4 mM (inactive). For `c1ccc(-c2noc(-c3cccnc3)n2)nc1`, the Kd was > 4 mM (inactive). With `O=C(OCc1c(Cl)cccc1Cl)c1cnccn1` the Kd was > 4 mM (inactive). In the case of `O=C(O)CC12CC3CC(CC(O)(C3)C1)C2`, the Kd is reported as > 4 mM (inactive). For `C=C1CCC(C2CC(=O)OC2=O)C(=O)CCC2C1CC2(C)C` (stereo unspecified), the Kd was > 4 mM (inactive). In the case of `CC(C)=CC(=O)Nc1ccccc1C(N)=O`, the Kd is reported as > 4 mM (inactive). In the case of `O=C(O)c1cccnc1N1CCCC1`, the Kd is reported as > 4 mM (inactive). For `OCc1cc(-c2cccs2)on1`, the Kd was > 4 mM (inactive). `COc1cc(/C=C/C(=O)O)ccc1O` was tested, and the Kd was > 4 mM (inactive). For `O=C(COc1ccc(S(=O)(=O)Nc2cccc(C(F)(F)F)c2)cc1)N1CCOCC1`, the Kd was “inactive”. In the case of `CC(=O)Nc1nc(-c2cccs2)cs1`, the Kd is reported as > 4 mM (inactive). For `COc1cc(OC)c(OC)cc1C=O`, the Kd was > 4 mM (inactive). With `NC(=O)c1ccc(C(N)=O)cc1` the Kd was > 4 mM (inactive). In the case of `O=C1C2CCCCC2C(=O)N1c1nccs1` (stereo unspecified), the Kd is reported as > 4 mM (inactive). With `CN(C(=O)NC1CCS(=O)(=O)C1)C1CCCCC1` (stereo unspecified) the Kd was > 4 mM (inactive). In the case of `NCCc1c[nH]c2ccccc12`, the Kd is reported as > 4 mM (inactive). `CCOc1ccc(OCC(=O)N2CCOCC2)cc1` was tested, and the Kd was “inactive”. With `O=C(O)C1CN2CCC1CC2` (stereo unspecified) the Kd was > 4 mM (inactive). `CC(=O)Nc1ccc(S(=O)(=O)NCC2CCCO2)cc1` (stereo unspecified) was tested, and the Kd was > 4 mM (inactive). With `S=C(Nc1ccccc1)Nc1nncs1` the Kd was > 4 mM (inactive). With `C[C@]12CC(=O)C3C(CC[C@@H]4C[C@H](O)CC[C@]34C)C1CC[C@]2(O)C(=O)CO` (stereo partly specified) the Kd was > 4 mM (inactive). In the case of `C=C[C@@](C)(O)CCC1C(=C)C[C@H](OC(C)=O)C2C(C)(C)CCCC12C` (stereo partly specified), the Kd is reported as > 4 mM (inactive). With `CN1CCC2(CC1)CC1CC3C=CC1(CN2)O3` (stereo unspecified) the Kd was > 4 mM (inactive). For `COc1cc(-c2csc(C)n2)ccc1O`, the Kd was > 4 mM (inactive). With `COc1ccccc1/C=C/CN1CCOCC1` the Kd was > 4 mM (inactive). In the case of `Cc1ccc(C(C)C)c(OCCNC(=O)c2ccccc2OCC(=O)N2CCOCC2)c1`, the Kd is reported as “inactive”. For `CN(c1ccc(C(=O)N2CCCCC2)cc1)S(C)(=O)=O`, the Kd was > 4 mM (inactive). For `CC(C)CCCC(C)C1CCC2C3C[C@@H](O)[C@@]4(O)C[C@@H](O)CC[C@]4(C)C3CC[C@]12C` (stereo partly specified), the Kd was > 4 mM (inactive). With `c1ccc(Cn2c(Nn3cnnc3)nc3ccccc32)cc1` the Kd was > 4 mM (inactive). `CCOC(=O)c1c(C)nc2ncccn12` was tested, and the Kd was > 4 mM (inactive). With `CC(=O)CNc1cc(CNC(C)=O)c(C)cc1C` the Kd was > 4 mM (inactive). In the case of `NCc1cccc2nsnc12`, the Kd is reported as > 4 mM (inactive). With `Cc1c(C(=O)N2CCOCC2)oc2c1C(=O)CC(C)(C)C2` the Kd was > 4 mM (inactive). `NC(=O)c1cc(N)ccc1N1CCCCC1` was tested, and the Kd was > 4 mM (inactive). With `C[C@]12CCC3C(CC[C@]4(O)C[C@@H](O)CC[C@]34C=O)[C@@]1(O)CCC2C1=CC(=O)OC1` (stereo partly specified) the Kd was > 4 mM (inactive). `Cc1ccc2c(c1)CCCN2C(=O)c1ccncc1` was tested, and the Kd was > 4 mM (inactive). `O=c1[nH]c(=O)n(-c2ccc(F)cc2)c(O)c1/C=C1/C=CC=N1` was tested, and the Kd was > 4 mM (inactive). For `O=C(CO)N/N=C/c1ccccc1F`, the Kd was > 4 mM (inactive). `Cc1nnc(N2CCN(Cc3ccccc3)CC2)[nH]c1=O` was tested, and the Kd was > 4 mM (inactive). In the case of `C=CCn1c(N)c(C(=O)N2CCOCC2)sc1=S`, the Kd is reported as > 4 mM (inactive). In the case of `CSc1nnc2c(n1)OC=Nc1ccccc1-2`, the Kd is reported as > 4 mM (inactive). `COC(=O)C[C@H]1C(C)(C)C(=O)[C@@H]2CC3=C(CC[C@]4(C)C3=CC(=O)O[C@H]4c3ccoc3)C1(C)C2=O` was tested, and the Kd was > 4 mM (inactive). In the case of `Cc1c(C(=O)Nn2cnnc2)oc2ccccc12`, the Kd is reported as > 4 mM (inactive). With `CC(=O)c1ccc(NC(=O)c2ocnc2C)cc1` the Kd was > 4 mM (inactive). In the case of `CC(=O)Nc1ccc(NC(=O)c2ccncc2)cc1`, the Kd is reported as > 4 mM (inactive). In the case of `Cc1ccc(CCNc2ccccc2)c[n+]1[O-]`, the Kd is reported as > 4 mM (inactive). With `O=C(/C=C/c1ccccc1)NC1CCS(=O)(=O)C1` (stereo unspecified) the Kd was > 4 mM (inactive). With `O=S1(=O)NC(=NCc2ccccc2)c2ccccc21` the Kd was > 4 mM (inactive). In the case of `CC(=O)Nc1ccc(NC(=O)C2CC2)cc1`, the Kd is reported as > 4 mM (inactive). For `Cc1cc(N)on1`, the Kd was > 4 mM (inactive). `Cc1ccc(C(=O)Nn2cnnc2)s1` was tested, and the Kd was > 4 mM (inactive). For `COc1ccc(C2(C)NC(=O)NC2=O)cc1` (stereo unspecified), the Kd was > 4 mM (inactive). In the case of `O=C(O)CC1Sc2ccccc2NC1=O` (stereo unspecified), the Kd is reported as > 4 mM (inactive). `OCc1sccc1-n1cccc1` was tested, and the Kd was > 4 mM (inactive). For `CSc1ccc(C2NC(=O)CCC2[N+](=O)[O-])cc1` (stereo unspecified), the Kd was > 4 mM (inactive). `CC(=O)Nc1nnc(-c2ccccc2)o1` was tested, and the Kd was > 4 mM (inactive). In the case of `O=C1CCC(=O)N1CNc1ccccc1`, the Kd is reported as > 4 mM (inactive). With `CCOC(=O)c1cnn2ccccc12` the Kd was > 4 mM (inactive). For `Fc1ccc2onc(C3CCNCC3)c2c1`, the Kd was > 4 mM (inactive). With `O=C(O)c1csc2ccccc12` the Kd was > 4 mM (inactive). With `CN1CCCCC1c1ccc(-c2cccnc2)nc1` (stereo unspecified) the Kd was > 4 mM (inactive). `Cc1noc(C)c1C(=O)Nc1ccc2c(c1)CCC2` was tested, and the Kd was > 4 mM (inactive). In the case of `O=C1C=C(Nc2ccccc2O)c2ccccc2C1=O`, the Kd is reported as > 4 mM (inactive). `Cn1[nH]c2nc3[nH]n(C)c(=O)c3c(-c3ccccc3)c2c1=O` was tested, and the Kd was > 4 mM (inactive). `NC1=C([N+](=O)[O-])C(=O)c2ccccc21` was tested, and the Kd was > 4 mM (inactive). `CSc1nc(C)cc(-n2ccc(=O)[nH]c2=O)n1` was tested, and the Kd was > 4 mM (inactive). With `O=C(O)/C=C/C(=O)Nc1ccccc1C(F)(F)F` the Kd was > 4 mM (inactive). In the case of `Cc1sc2nc3n(c(=O)c2c1C)CCCS3`, the Kd is reported as > 4 mM (inactive). `CC(=O)OC(C)(C)[C@@H]1Cc2cc3ccc(=O)oc3cc2O1` was tested, and the Kd was > 4 mM (inactive). `CN1C2CC[C@@H]1CC(OC(=O)[C@H](CO)c1ccccc1)C2` (stereo partly specified) was tested, and the Kd was > 4 mM (inactive). In the case of `O=c1nc(N2CCOCC2)nc2n1CCO2`, the Kd is reported as > 4 mM (inactive). In the case of `CC(C)=NNC(=O)c1ccccc1`, the Kd is reported as > 4 mM (inactive). In the case of `CN(C)S(=O)(=O)c1ccc(C(=O)NN)cc1`, the Kd is reported as > 4 mM (inactive). `CC(=O)O[C@H]1C[C@@]2(C)[C@@H](C[C@@H](O)C3[C@]2(C)CC[C@H]2[C@H](C)[C@H](O)CC[C@]32C)/C1=C(/CCC=C(C)C)C(=O)O` (stereo partly specified) was tested, and the Kd was > 4 mM (inactive). `O=C(Cn1c(-c2cscn2)nc2ccccc21)Nc1ccc(Oc2ccc(F)cc2)cc1` was tested, and the Kd was > 4 mM (inactive). In the case of `O=C1C2C3C=CC(C3)C2C(=O)N1CCCO` (stereo unspecified), the Kd is reported as > 4 mM (inactive). `COc1cc(C)nc(N(CCO)CCO)n1` was tested, and the Kd was > 4 mM (inactive). For `O=C(Nc1ccc2c(c1)OCCO2)c1c(F)cccc1F`, the Kd was > 4 mM (inactive). `O=C(Nc1cnccn1)c1cccnc1` was tested, and the Kd was > 4 mM (inactive). `COc1ccc(NC(=O)N2CCCCC2)cc1` was tested, and the Kd was > 4 mM (inactive). With `Nc1nc2ncc(=O)[nH]c2c(=O)[nH]1` the Kd was > 4 mM (inactive). `CC(C)Oc1ccc(NC(N)=O)cc1` was tested, and the Kd was > 4 mM (inactive). With `CC(C)c1c(O)ccc2c1CCC1C(C)(C)CCC[C@]21C` (stereo partly specified) the Kd was > 4 mM (inactive). In the case of `O=c1oc2ccccc2cc1O`, the Kd is reported as > 4 mM (inactive). With `Cc1c(/C=N/O)cnn1C` the Kd was > 4 mM (inactive). With `O=C(Nc1ccccc1[N+](=O)[O-])c1ccc(=O)[nH]n1` the Kd was > 4 mM (inactive). In the case of `CCOc1cc(S(=O)(=O)N2CCOCC2)ccc1F`, the Kd is reported as > 4 mM (inactive). For `CN(C)C(=O)Nc1ccc(F)cc1F`, the Kd was > 4 mM (inactive). `Cc1ccc(-c2cc(C(=O)N3CCCC3)no2)cc1` was tested, and the Kd was > 4 mM (inactive). With `COc1ccc(-c2coc3cc(O)ccc3c2=O)cc1` the Kd was > 4 mM (inactive). For `O=C(O)C1CCCN1Cc1c[nH]c2ccccc12` (stereo unspecified), the Kd was > 4 mM (inactive). `Cc1nc(N)sc1C(=O)Nc1nccs1` was tested, and the Kd was > 4 mM (inactive). `COc1ccc(C)cc1-n1c(-c2ccncc2)n[nH]c1=S` was tested, and the Kd was > 4 mM (inactive). For `O=C(NN1CCOCC1)c1cccs1`, the Kd was > 4 mM (inactive). In the case of `COc1ccc(-c2cc(=O)c3c(OC)c(OC)c(OC)c(OC)c3o2)cc1OC`, the Kd is reported as > 4 mM (inactive). For `CSc1cccc(NC(=O)c2c(Cl)cnn2C)c1`, the Kd was > 4 mM (inactive). For `NC(=O)Cn1cnc2ccccc21`, the Kd was > 4 mM (inactive). `COc1c2c(cc3c1OCO3)CCN(C)C2` was tested, and the Kd was > 4 mM (inactive). `N#Cc1nc(N2CCCCC2)nc(N2CCOCC2)n1` was tested, and the Kd was > 4 mM (inactive). In the case of `NC(=O)NC(=O)Nc1ccc(Cl)cc1`, the Kd is reported as > 4 mM (inactive). For `CC(=O)Nc1nc(C)c(C(C)=O)s1`, the Kd was > 4 mM (inactive). In the case of `O=C1CSC(=Nc2ccccc2[N+](=O)[O-])N1`, the Kd is reported as > 4 mM (inactive). For `Cc1ccn(S(=O)(=O)c2ccc(C(C)(C)C)cc2)n1`, the Kd was > 4 mM (inactive). `Cc1cc2c(nn1)CCc1nonc1-2` was tested, and the Kd was > 4 mM (inactive). With `O=C(Nc1cccc(O)c1)c1ccccc1` the Kd was > 4 mM (inactive). With `CC1=CC(=O)C2C(C)(C)CCC[C@]2(C)[C@@]1(O)CCc1ccoc1` (stereo partly specified) the Kd was > 4 mM (inactive). In the case of `COc1ccccc1-c1c(C)nn2c(C)c(C(C)=O)cnc12`, the Kd is reported as > 4 mM (inactive). With `CN1C(=O)c2ccc(C(=O)NC3CCCCC3)cc2C1=O` the Kd was > 4 mM (inactive). `CNC(=O)C1COc2ccccc2O1` (stereo unspecified) was tested, and the Kd was > 4 mM (inactive). `Cc1nnc(SCc2ccccc2)[nH]c1=O` was tested, and the Kd was > 4 mM (inactive). In the case of `NC(=O)c1ccc(-c2ccccn2)s1`, the Kd is reported as > 4 mM (inactive). With `CN=C(c1ccc([N+](=O)[O-])cc1)N(C)C` the Kd was > 4 mM (inactive). With `Cc1nc2ccccc2c(=O)n1/N=C/c1ccco1` the Kd was > 4 mM (inactive). `CSc1ccccc1NC(=O)c1ccc(C)o1` was tested, and the Kd was > 4 mM (inactive). For `COc1ccc(C(O)c2nccn2C)cc1` (stereo unspecified), the Kd was > 4 mM (inactive). `CC(C)(C)Cc1nc(-c2ccccn2)no1` was tested, and the Kd was > 4 mM (inactive).
